Test results as given in patent US20020061888A1, “Combination therapy for the prophylaxis and treatment of hyperlipidemic conditions and disorders” (priority 2000, published 2002).
“And” between values parts separate entries of the source, which are not always exact repeats. Identical values can stand only once. Marks after values point to notes of the source that are not given here.

Columns and labels:
Male beagle dogs [1] = assay: Body or fecal weights, stool consistency, general animal health of treated beagle dogs; assay type: in vivo; conditions: any of the groups
Procedure: (§1) Male beagle dogs (9-10 kg) obtained from Marshall farms were fed a normal chow diet once a day for a two hour interval and given water ad libitum. Prior to initiating treatment, the dogs were weighed and blood samples were drawn from the cephalic vein of each dog following an overnight fast to evaluate pretreatment serum total cholesterol levels at the start of the study. […] All doses were administered in gelatin capsules per os to each dog between 9:00-9:30 a.m. prior to feeding. All animals were fed between 9:30-10:00 a.m. and were allowed two hours to eat, at which time any remaining food was removed. […] Animals were dosed daily for three weeks and blood samples were taken at the end of each week after an overnight fast for comparison with pretreatment serum total cholesterol levels. Three consecutive 24 hour fecal samples were collected for each group during the last 72 hours of each week and used to measure the concentration of fecal biles acids excreted during that time period.
Following this initial four week dose-ranging study, dogs from the two groups receiving 10 mg/kg/day pravastatin (a.m. and p.m. dosing groups) were randomized into two new treatment groups based on serum total cholesterol levels to initiate the combination treatment study. […] Dosing continued in this manner for an additional four weeks (Weeks 5-8) with blood and 48-hour fecal samples collected at the end of each week for serum lipid measurements and fecal bile acid determinations, respectively. […] At the end of this three-week period, pravastatin dosing and all empty capsule dosing were discontinued and blood samples were collected weekly for a final three weeks (weeks 12-14) to monitor the return of serum total cholesterol levels back to baseline.
Male beagle dogs (9-10 kg) obtained from Marshall farms were fed once a day for two hours and given water ad libitum.

Male beagle dogs [2] = assay: Serum total cholesterol in beagle dogs (serum lipid measurements); assay type: in vivo; conditions: for SERUM TOTAL CHOLESTEROL / TOTAL SERUM CHOLESTEROL: n = 6; for decrease in serum total cholesterol concentration: compared to vehicle
Procedure: as §1
Blood was collected from the cephalic vein of each dog into serum separator tubes. The blood was centrifuged at 900×g for 20 minutes at room temperature and the serum decanted. All analyses were performed on a Cobas Mira Clinical Analyzer System (Roche Diagnostic Systems, Branchburg, N.J.) using Roche Diagnostic reagents for enzymatic determinations of serum cholesterol. Commercial calibrator and quality control materials were analyzed with each run to verify assay accuracy and precision. A two-tailed, paired Students t-test was used to determine the statistical significance of changes in serum total cholesterol in treated dogs compared to pretreatment values. A one-way analysis of variance (“ANOVA”) was used to compare each pair of treatment groups to determine the statistical significance of changes in serum total cholesterol.
Beagle dogs also were administered pravastatin to evaluate the monotherapeutic effect of pravastatin on serum total cholesterol.
Male beagle dogs (9-10 kg) obtained from Marshall farms were fed once a day for two hours and given water ad libitum. Prior to initiating treatment, blood samples were drawn from the cephalic vein of each dog to evaluate pretreatment total serum cholesterol levels at the start of the study.
For the dose ranging study, the dogs were assigned to one of five groups based on mean body weights and serum total cholesterol levels. Each group received one of the following dosages: (1) vehicle (empty capsule, afternoon dosing), (2) 3.0 mg/kg/day pravastatin (afternoon dosing), (3) 10 mg/kg/day pravastatin (afternoon dosing), (4) 30 mg/kg/day pravastatin (afternoon dosing), and (5) 10 mg/kg/day pravastatin (morning dosing). One capsule containing pravastatin was administered per os to each dog between 9:00-9:30 a.m. prior to feeding for the 10 mg/kg/day morning dosing group and between 2:30-3:00 p.m. for the afternoon dosing groups. All animals were fed between 9:30-10:00 a.m. and were allowed two hours to eat, at which time any remaining food was removed. […] Animals were dosed daily for four weeks and blood samples were taken at the end of each week after an overnight fast for comparison with pretreatment serum total cholesterol levels.
Following this initial four week dose-ranging study, dogs from the two groups receiving 10 mg/kg/day pravastatin (a.m. and p.m. dosing groups) were randomized into two new treatment groups based on serum total cholesterol levels to initiate the combination treatment study. […] Dosing continued in this manner for an additional four weeks (Weeks 5-8) with blood and 48-hour fecal samples collected at the end of each week for serum lipid measurements and fecal bile acid determinations, respectively.

`CCCCC1(CC)CS(=O)(=O)c2ccc(N(C)C)cc2[C@@H](c2cccc(OCc3ccc(C[N+]45CCN(CC4)CC5)cc3)c2)[C@H]1O.[Cl-]` (some centres unmarked) [Compound A-5] was tested, and the “changes in body or fecal weights, stool consistency or general animal health” value (Male beagle dogs [1]; Example 1, compound A-5 0.22-6.0 mg/kg/day for three weeks) was “no significant changes”, the “changes in body or fecal weights, stool consistency or general animal health” value (Male beagle dogs [1]; Example 3 study (pravastatin 3-30 mg/kg/day, compound A-5 4.0 mg/kg/day, combination)) was “no significant changes” and the “% change in serum total cholesterol compared to the pretreatment value of each group” value (from here on “% change in serum total cholesterol”) (Male beagle dogs [2]; compound A-5 0.22 mg/kg/day per os, Week 1) was “(−9) %”. The “SERUM TOTAL CHOLESTEROL” value (Male beagle dogs [2]; compound A-5 0.22 mg/kg/day per os, Week 1, mean ± SEM) was 140 ± 10^3 mg/dL, the “% change in serum total cholesterol” value (Male beagle dogs [2]; compound A-5 0.22 mg/kg/day per os, Week 2) was “(−7) %” and the “SERUM TOTAL CHOLESTEROL” value (Male beagle dogs [2]; compound A-5 0.22 mg/kg/day per os, Week 2, mean ± SEM) was 143 ± 11 mg/dL. The “% change in serum total cholesterol” value (Male beagle dogs [2]; compound A-5 0.22 mg/kg/day per os, Week 3) was “(−10) %”, the “SERUM TOTAL CHOLESTEROL” value (Male beagle dogs [2]; compound A-5 0.22 mg/kg/day per os, Week 3, mean ± SEM) was 138 ± 11^3 mg/dL and the “decrease in serum total cholesterol concentration” value (Male beagle dogs [2]; compound A-5 0.22 mg/kg/day, one week of treatment) was 9%. The “decrease in serum total cholesterol concentration” value (Male beagle dogs [2]; compound A-5 0.22 mg/kg/day, three weeks of treatment) was 10%, the “% change in serum total cholesterol” value (Male beagle dogs [2]; compound A-5 0.66 mg/kg/day per os, Week 1) was “(−7) %” and the “SERUM TOTAL CHOLESTEROL” value (Male beagle dogs [2]; compound A-5 0.66 mg/kg/day per os, Week 1, mean ± SEM) was 145 ± 9 mg/dL. The “% change in serum total cholesterol” value (Male beagle dogs [2]; compound A-5 0.66 mg/kg/day per os, Week 2) was “(−4) %”, the “SERUM TOTAL CHOLESTEROL” value (Male beagle dogs [2]; compound A-5 0.66 mg/kg/day per os, Week 2, mean ± SEM) was 149 ± 8 mg/dL and the “% change in serum total cholesterol” value (Male beagle dogs [2]; compound A-5 0.66 mg/kg/day per os, Week 3) was “(−6) %”. For the same molecule, the “SERUM TOTAL CHOLESTEROL” value (Male beagle dogs [2]; compound A-5 0.66 mg/kg/day per os, Week 3, mean ± SEM) was 146 ± 8 mg/dL, the “decrease in serum total cholesterol concentration” value (Male beagle dogs [2]; compound A-5 0.66 mg/kg/day, one week of treatment) was 7% and the “decrease in serum total cholesterol concentration” value (Male beagle dogs [2]; compound A-5 0.66 mg/kg/day, three weeks of treatment) was 6%. The “% change in serum total cholesterol” value (Male beagle dogs [2]; compound A-5 2.0 mg/kg/day per os, Week 1) was “(−12) %”, the “SERUM TOTAL CHOLESTEROL” value (Male beagle dogs [2]; compound A-5 2.0 mg/kg/day per os, Week 1, mean ± SEM) was 137 ± 10^3 mg/dL and the “% change in serum total cholesterol” value (Male beagle dogs [2]; compound A-5 2.0 mg/kg/day per os, Week 2) was “(−15) %”. For the same molecule, the “SERUM TOTAL CHOLESTEROL” value (Male beagle dogs [2]; compound A-5 2.0 mg/kg/day per os, Week 2, mean ± SEM) was 133 ± 11^3 mg/dL, the “% change in serum total cholesterol” value (Male beagle dogs [2]; compound A-5 2.0 mg/kg/day per os, Week 3) was “(−13) %” and the “SERUM TOTAL CHOLESTEROL” value (Male beagle dogs [2]; compound A-5 2.0 mg/kg/day per os, Week 3, mean ± SEM) was 136 ± 10^3 mg/dL. For the same molecule, the “decrease in serum total cholesterol concentration” value (Male beagle dogs [2]; compound A-5 2.0 mg/kg/day, one week of treatment) was 12%, the “decrease in serum total cholesterol concentration” value (Male beagle dogs [2]; compound A-5 2.0 mg/kg/day, three weeks of treatment) was 13% and the “decrease in serum total cholesterol compared to the initial value at Week 0” value (Male beagle dogs [2]; compound A-5 4 mg/kg/day for four weeks (beginning after Week 4), Week 8) was 23%. For the same molecule, the “% change in serum total cholesterol” value (Male beagle dogs [2]; compound A-5 6.0 mg/kg/day per os, Week 1) was “(−19) %”, the “SERUM TOTAL CHOLESTEROL” value (Male beagle dogs [2]; compound A-5 6.0 mg/kg/day per os, Week 1, mean ± SEM) was 128 ± 11^3 mg/dL and the “% change in serum total cholesterol” value (Male beagle dogs [2]; compound A-5 6.0 mg/kg/day per os, Week 2) was “(−22) %”. The “SERUM TOTAL CHOLESTEROL” value (Male beagle dogs [2]; compound A-5 6.0 mg/kg/day per os, Week 2, mean ± SEM) was 124 ± 11^3 mg/dL, the “% change in serum total cholesterol” value (Male beagle dogs [2]; compound A-5 6.0 mg/kg/day per os, Week 3) was “(−24) %” and the “SERUM TOTAL CHOLESTEROL” value (Male beagle dogs [2]; compound A-5 6.0 mg/kg/day per os, Week 3, mean ± SEM) was 120 ± 11^3 mg/dL. The “decrease in serum total cholesterol concentration” value (Male beagle dogs [2]; compound A-5 6.0 mg/kg/day, one week of treatment) was 19%, the “decrease in serum total cholesterol concentration” value (Male beagle dogs [2]; compound A-5 6.0 mg/kg/day, three weeks of treatment) was 24% and the “% change from Week 0 in total serum cholesterol” value (Male beagle dogs [2]; compound A-5 monotherapy 4.0 mg/kg/day, dosed Weeks 5-8, Week 5) was “(−12) %”. For the same molecule, the “TOTAL SERUM CHOLESTEROL” value (Male beagle dogs [2]; compound A-5 monotherapy 4.0 mg/kg/day, dosed Weeks 5-8, Week 5, mean ± SEM) was 123 ± 9 mg/dL, the “% change from Week 0 in total serum cholesterol” value (Male beagle dogs [2]; compound A-5 monotherapy 4.0 mg/kg/day, dosed Weeks 5-8, Week 6) was “(−18) %” and the “TOTAL SERUM CHOLESTEROL” value (Male beagle dogs [2]; compound A-5 monotherapy 4.0 mg/kg/day, dosed Weeks 5-8, Week 6, mean ± SEM) was 115 ± 8 [a] mg/dL. The “% change from Week 0 in total serum cholesterol” value (Male beagle dogs [2]; compound A-5 monotherapy 4.0 mg/kg/day, dosed Weeks 5-8, Week 7) was “(−18) %”, the “TOTAL SERUM CHOLESTEROL” value (Male beagle dogs [2]; compound A-5 monotherapy 4.0 mg/kg/day, dosed Weeks 5-8, Week 7, mean ± SEM) was 114 ± 6 [a] mg/dL and the “% change from Week 0 in total serum cholesterol” value (Male beagle dogs [2]; compound A-5 monotherapy 4.0 mg/kg/day, dosed Weeks 5-8, Week 8) was “(−23) %”. For the same molecule, the “TOTAL SERUM CHOLESTEROL” value (Male beagle dogs [2]; compound A-5 monotherapy 4.0 mg/kg/day, dosed Weeks 5-8, Week 8, mean ± SEM) was 107 ±7 mg/dL and 107 ± 7 [a] mg/dL, the “% change from Week 0 in total serum cholesterol” value (Male beagle dogs [2]; compound A-5 monotherapy group, dosing terminated after Week 8, Week 9) was “(−5) %” and the “TOTAL SERUM CHOLESTEROL” value (Male beagle dogs [2]; compound A-5 monotherapy group, dosing terminated after Week 8, Week 9, mean ± SEM) was 132 ± 7 mg/dL. For the same molecule, the “% change from Week 0 in total serum cholesterol” value (Male beagle dogs [2]; compound A-5 monotherapy group, dosing terminated after Week 8, Week 10) was “(−4) %”, the “TOTAL SERUM CHOLESTEROL” value (Male beagle dogs [2]; compound A-5 monotherapy group, dosing terminated after Week 8, Week 10, mean ± SEM) was 133 ± 10 mg/dL and the “% change from Week 0 in total serum cholesterol” value (Male beagle dogs [2]; compound A-5 monotherapy group, dosing terminated after Week 8, Week 11) was “(−5) %”. The “TOTAL SERUM CHOLESTEROL” value (Male beagle dogs [2]; compound A-5 monotherapy group, dosing terminated after Week 8, Week 11, mean ± SEM) was 132 ± 9 mg/dL, the “% change from Week 0 in total serum cholesterol” value (Male beagle dogs [2]; compound A-5 monotherapy group, dosing terminated after Week 8, Week 12) was “(−2) %” and the “TOTAL SERUM CHOLESTEROL” value (Male beagle dogs [2]; compound A-5 monotherapy group, dosing terminated after Week 8, Week 12, mean ± SEM) was 136 ± 9 mg/dL. The “% change from Week 0 in total serum cholesterol” value (Male beagle dogs [2]; compound A-5 monotherapy group, dosing terminated after Week 8, Week 13) was “(−14) %” and the “TOTAL SERUM CHOLESTEROL” value (Male beagle dogs [2]; compound A-5 monotherapy group, dosing terminated after Week 8, Week 13, mean ± SEM) was 137 ± 9 mg/dL.
